In publication PMC8790893 (Chemical Science, 2021):
Read-outs that look alike come from different tables or passages of the source. Each block holds one compound with its values, some of them ahead of it.

What was measured:
[1] = target: 5-lipoxygenase; conditions: read-out: IC50, 5-lipoxygenase; cited from earlier work
[2] = target: T1, RORγt-LBD (262-518) (Homo sapiens, UniProt P51449); assay type: biochemical
T1 sequence (P51449 262-518): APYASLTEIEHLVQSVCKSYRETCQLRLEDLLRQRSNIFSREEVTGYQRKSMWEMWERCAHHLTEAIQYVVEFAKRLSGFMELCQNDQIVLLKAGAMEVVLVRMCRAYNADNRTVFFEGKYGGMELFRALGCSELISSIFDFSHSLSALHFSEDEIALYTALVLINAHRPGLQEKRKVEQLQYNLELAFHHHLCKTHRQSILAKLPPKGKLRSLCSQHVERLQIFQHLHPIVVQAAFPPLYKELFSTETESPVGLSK

[3] = target: T2, RORγt-LBD (Homo sapiens, UniProt P51449); experiment: Intrinsic fluorescence-quenching based assay; assay type: binding; conditions: RORγt-LBD 30 μM; compound 0-50 μM; excitation 280 nm
T2 sequence (P51449 262-518): T1 sequence (P51449 262-518)

[4] = target: T2, RORγt-LBD; experiment: Isothermal titration calorimetry; assay type: binding
[5] = target: T3, RORγt-LBD-SRC2.2 (Homo sapiens, UniProt P51449); experiment: Drug affinity responsive target stability; assay type: binding; conditions: 60 μM protein, 40 °C, 10 min, dose-dependent
T3 sequence (P51449 with tags, fused parts or gaps): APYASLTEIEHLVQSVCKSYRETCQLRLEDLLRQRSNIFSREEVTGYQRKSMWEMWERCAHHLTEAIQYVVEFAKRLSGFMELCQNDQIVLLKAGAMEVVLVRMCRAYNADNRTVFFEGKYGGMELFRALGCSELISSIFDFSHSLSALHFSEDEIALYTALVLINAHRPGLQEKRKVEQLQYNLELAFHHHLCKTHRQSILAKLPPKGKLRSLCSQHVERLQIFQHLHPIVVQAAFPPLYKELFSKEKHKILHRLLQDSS

[6] = target: T4, RORγt in HEK293T cells (Homo sapiens, UniProt P51449); experiment: Cellular thermal shift assay; assay type: cell-based; conditions: HEK293T cells exogenously expressing RORγt, 60 μM, 2 h
T4 sequence (P51449 1-497 isoform P51449-2): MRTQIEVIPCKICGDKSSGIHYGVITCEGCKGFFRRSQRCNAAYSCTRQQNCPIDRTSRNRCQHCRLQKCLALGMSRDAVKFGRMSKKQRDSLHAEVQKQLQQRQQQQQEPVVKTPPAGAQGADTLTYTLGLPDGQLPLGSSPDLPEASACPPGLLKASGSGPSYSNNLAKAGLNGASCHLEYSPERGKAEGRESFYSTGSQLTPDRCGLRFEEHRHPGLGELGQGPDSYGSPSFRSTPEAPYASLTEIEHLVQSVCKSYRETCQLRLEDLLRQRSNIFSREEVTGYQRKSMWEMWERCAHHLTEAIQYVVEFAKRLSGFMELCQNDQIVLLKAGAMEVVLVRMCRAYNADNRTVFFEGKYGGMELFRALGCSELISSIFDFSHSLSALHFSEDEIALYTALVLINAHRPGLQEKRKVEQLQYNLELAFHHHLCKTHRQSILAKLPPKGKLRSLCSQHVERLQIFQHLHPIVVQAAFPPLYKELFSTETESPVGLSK

[7] = test system: experimental autoimmune encephalomyelitis (EAE); experiment: MOG35-55-induced EAE: clinical signs, disease onset, body weight; assay type: in vivo, female C57BL/6 mice; conditions: EAE mice; for EAE induced body weight loss: 50 mg kg^−1 orally every day from day 12; for mean disease onset date: 50 mg kg^−1 orally every day from day 12, n = 8
[8] = test system: TH17 cells; experiment: Flow cytometry of spleen cells of EAE mice; assay type: in vivo; conditions: CD4 and IL-17 dual-staining
[9] = test system: blood–brain barrier (BBB); experiment: In vivo imaging of brain inflammation; conditions: EAE mice, day 9 post-administration
[10] = test system: IL-17A; experiment: ELISA of IL-17A in spinal cord and brain supernatant; assay type: in vivo; conditions: EAE mice
[11] = test system: spinal cord white matter; experiment: Histochemical analysis of spinal cords; assay type: in vivo; conditions: EAE mice, 50 mg kg^−1 orally, LFB and H&E staining
[12] = target: sigma 1 receptor; conditions: cited from earlier work
[13] = test system: AR; conditions: read-out: IC50 in AR competitive binding assay; cited from earlier work
[14] = test system: AR; conditions: read-out: IC50 in AR transcriptional assay; cited from earlier work
[15] = test system: DOCA-salt-induced organ damage; conditions: rats; by blocking the activation of TH17 cells; cited from earlier work
[16] = test system: prostate cancer; conditions: cited from earlier work
[17] = target: T5, human RORγt (Homo sapiens, UniProt P51449); experiment: RORγt-GAL4 dual-luciferase reporter assay; assay type: cell-based
T5 sequence (P51449 97-516): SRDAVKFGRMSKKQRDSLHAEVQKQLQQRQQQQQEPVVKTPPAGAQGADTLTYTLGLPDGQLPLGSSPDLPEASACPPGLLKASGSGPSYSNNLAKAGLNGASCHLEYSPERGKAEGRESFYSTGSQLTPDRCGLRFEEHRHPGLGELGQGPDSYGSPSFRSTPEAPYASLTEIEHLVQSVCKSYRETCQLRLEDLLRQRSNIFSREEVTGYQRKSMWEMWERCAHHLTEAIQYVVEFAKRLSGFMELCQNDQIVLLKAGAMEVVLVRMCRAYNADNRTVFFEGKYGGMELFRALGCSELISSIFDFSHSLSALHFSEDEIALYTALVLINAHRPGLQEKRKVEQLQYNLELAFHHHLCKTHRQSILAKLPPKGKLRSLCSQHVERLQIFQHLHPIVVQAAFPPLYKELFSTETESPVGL

[18] = target: T3, RORγt-LBD-SRC2.2; experiment: Co-crystallization and X-ray structure determination; conditions: resolution 1.99 Å

Structure (SMILES): Oc1cc(O)cc(/C=C/c2ccc(O)c(O)c2)c1 [piceatannol]
IC50 [1]: 240 nM

IC50 [2]: 280 nM
Kd [4]: 1060 nM
proteolysis of RORγt-LBD-SRC2.2 by pronase E [5]: clearly decreased
Tm values of RORγt (CETSA) [6]: significantly increased
Structure (SMILES): CC1(C)CC[C@]2(C(=O)O)CC[C@]3(C)C(=CC[C@@H]4[C@@]5(C)CCC(=O)C(C)(C)[C@@H]5CC[C@]43C)[C@@H]2C1 [oleanonic acid, Oleanonic Acid]
fluorescence quenching of RORγt-LBD [3]: dose-dependently induced fluorescence quenching
EAE induced body weight loss [7]: significantly reversed
mean disease onset date [7]: 15.3 ± 0.2 days
frequency of pro-inflammatory TH17 cells in the spleen [8]: reduced frequency
EAE-induced BBB disruption (brain BSA-Cy5.5 accumulation) [9]: remitted the EAE-induced BBB disruption obviously
IL-17A protein expression in brains and spinal cords [10]: effectively reduced
immune cell infiltrations in white matter of spinal cords [11]: reduced

Structure (SMILES): CCN(CCO)CCCC(C)Nc1ccnc2cc(Cl)ccc12 (centres unmarked) [hydroxychloroquine]
pKi, sigma 1 receptor [12]: 6.9

Structure (SMILES): C[C@]12CC[C@H](O)CC1=CC[C@@H]1[C@@H]2CC[C@]2(C)C(c3cccnc3)=CC[C@@H]12 [abiraterone, Abiraterone]
IC50 [13]: 7600 nM
IC50 [14]: 9400 nM

Structure (SMILES): CCN(CC)CCCC(C)Nc1ccnc2cc(Cl)ccc12 (centres unmarked) [chloroquine]
pKi, sigma 1 receptor [12]: 7.1

Structure (SMILES): Oc1ccc(/C=C/c2cc(O)cc(O)c2)cc1 [resveratrol]
IC50 [1]: 4900 nM

Structure (SMILES): CC(=O)S[C@@H]1CC2=CC(=O)CC[C@]2(C)[C@H]2CC[C@@]3(C)[C@@H](CC[C@@]34CCC(=O)O4)[C@H]12 [Spironolactone]
effect on DOCA-salt-induced organ damage [15]: decrease DOCA-salt-induced organ damage
effect on the incidence of prostate cancer [16]: reduce the incidence of prostate cancer

IC50 [17]: 100 nM
IC50 [2]: 10 nM
Kd [4]: 3040 nM
proteolysis of RORγt-LBD-SRC2.2 by pronase E [5]: clearly decreased
Tm values of RORγt (CETSA) [6]: significantly increased
Structure (SMILES): C[C@H]1[C@H](C)CC[C@]2(C(=O)O)CC[C@]3(C)C(=CC[C@@H]4[C@@]5(C)CCC(=O)C(C)(C)[C@@H]5CC[C@]43C)[C@H]12 [ursonic acid, Ursonic Acid]
fluorescence quenching of RORγt-LBD [3]: dose-dependently induced fluorescence quenching
binding site in the crystal structure (PDB code: 6J3N) [18]: buried in the canonical orthosteric ligand pocket
EAE induced body weight loss [7]: significantly reversed
mean disease onset date [7]: 17.3 ± 0.5 days
frequency of pro-inflammatory TH17 cells in the spleen [8]: reduced frequency
EAE-induced BBB disruption (brain BSA-Cy5.5 accumulation) [9]: remitted the EAE-induced BBB disruption obviously
IL-17A protein expression in brains and spinal cords [10]: effectively reduced
immune cell infiltrations in white matter of spinal cords [11]: reduced
